Data reported in patent US10683483B2, “Microfabricated platform for mimicking the liver zonation and evaluating method of zonal toxicity using thereof” (Korea Research Institute of Chemical Technology, priority 2019, dated 2020).

Assays:
HepaRG cells [1] = assay: Hepatotoxicity evaluation by dead cell staining (EthD-1) in the microfabricated platform for mimicking the liver zonation; assay type: cell-based; settings: 10 mM acetaminophen, 48 hours
Procedure: First, an impermeable fluorescent substance was formed in the inside of HepaRG cells by using cell tracker deep red fluorescent solution in order to trace the location of HepaRG cells. A microfabricated platform for mimicking the liver zonation was prepared by the same conditions and same manners as described in Example 1 by using the prepared HepaRG cells. […] As a control, a culture medium without acetaminophen was used. Upon completion of the culture, the medium was removed and the dead cells were stained with EthD-1 (ethidium homodimer-1).

HepaRG cells [2] = assay: Hepatotoxicity evaluation by cell viability (cell counting kit-8) of pieces of the microfabricated platform for mimicking the liver zonation; assay type: cell-based; settings: 48 hours; acetaminophen 12.5-200 mM, tamoxifen 31.2-500 μM; pieces along CHIR gradient
Procedure: The 96-well plate was cultured at 37° C. for 48 hours. Upon completion of the reaction, cells were washed with PBS and the absorbance of the cells was measured using cell counting kit-8 (Dojindo Molecular Technologies) according to the manufacturer's protocol.

liver tissue = assay: Hepatotoxicity in liver tissue of a rat model (H&E staining); assay type: in vivo, Sprague Dawley rats; settings: oral, once a day for 3 days; acetaminophen 1,000 mg/kg, tamoxifen 60 mg/kg
Description: After the administration, the animals were sacrificed, from which the liver tissues were obtained. The obtained liver tissues were stained with H&E, followed by observation under a microscope.

## CC(=O)Nc1ccc(O)cc1 [acetaminophen]
HepaRG cells [1]
  EthD-1 staining of dead cells (fluorescence intensity) by zone: high fluorescence intensity in those hepatocytes exposed to a relatively high concentration of CHIR
HepaRG cells [2]
  zone-specific sensitivity of cell viability to drug induced toxicity: more sensitive to the acetaminophen induced toxicity
Liver tissue
  liver histopathology by zone (H&E): increased mitosis (yellow triangle), necrosis (blue triangle) and inflammatory cell infiltration (green triangle) in the central vein of the liver (zone 3)
